Reference: patent US12428403B2, “N-(heterocyclyl and heterocyclylalkyl)-3-benzylpyridin-2-amine derivatives as SSTR4 agonists” (Takeda Pharmaceutical Company Limited, priority 2020, dated 2025)

Columns and labels:
SSTR4 [1] = target: T1, SSTR4 (Homo sapiens, UniProt P31391); assay: cell-based
Description: This cell-based assay measures the ability of compounds to inhibit forskolin stimulated cAMP in CHO-K1 cells overexpressing SSTR4. CHO-K1 cells overexpressing SSTR4 (CHO-SSTR4) are purchased from DiscoveRx (product code 95-0059C2). The CHO-SSTR4 cells are maintained in F12K media with 10% Fetal Bovine Serum (Hyclone), 1% Pen/Strep (Life Technologies), and 800 μg/mL G418 (Life Technologies). To perform the assay, 3000 cells are plated per well in white 384-well plate (Corning 3570) in 50 complete media and the cells are allowed to attach for 16 hours in a 37° C., 5% CO2 incubator. The next day, the culture media is removed from the cells and the cells are washed (added then removed) with Krebs Ringer Buffer (ZenBio, KRB-1000 mL). Test compounds are suspended in DMSO and diluted in stimulation buffer: Krebs Ringer Buffer plus 0.5% BSA (Roche), 300 μM IBMX (Sigma), and 350 nM forskolin (Sigma). The cells are incubated in 10 μL compound/stimulation buffer for 30 minutes at room temperature. Cellular cAMP levels are detected with a HTRF LANCE Ultra cAMP kit (Perkin Elmer, catalog number TRF0264).
The assay is performed in accordance with the manufacturer's instructions. Five μL of diluted Eu-W8044 labeled streptavidin (dilution: 1:50 in cAMP Detection Buffer) is added to each well. Then 5 μL of diluted biotin cAMP (dilution: 1:150 in cAMP Detection Buffer) is added to each well. The plates are covered and allowed to incubate for 60 minutes at room temperature on a shaker. HTRF (665 nm/615 nm) is read on a Perkin Elmer ENVISION plate reader. The pEC50 values are generated using Activity Base for Screening Data Management.

SSTR1 = SSTR1 (Homo sapiens, UniProt P30872); assay: biochemical;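 further: competitive binding to membranes of CHO-K1 cells overexpressing SSTR1, incubated 60 min at room temperature, radioactivity read by scintillation counting after filtration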
Sequence of SSTR1 (P30872 whole entry): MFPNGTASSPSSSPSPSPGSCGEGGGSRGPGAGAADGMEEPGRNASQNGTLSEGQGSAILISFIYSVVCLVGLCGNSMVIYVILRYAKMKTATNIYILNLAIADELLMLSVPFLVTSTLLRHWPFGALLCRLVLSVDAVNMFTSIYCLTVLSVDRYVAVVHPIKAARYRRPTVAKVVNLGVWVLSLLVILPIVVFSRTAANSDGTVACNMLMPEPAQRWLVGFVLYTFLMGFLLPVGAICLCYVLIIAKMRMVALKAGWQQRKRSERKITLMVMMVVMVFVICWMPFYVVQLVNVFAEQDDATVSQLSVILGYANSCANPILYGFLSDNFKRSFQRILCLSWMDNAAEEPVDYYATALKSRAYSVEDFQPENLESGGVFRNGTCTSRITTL
Description: SSTR1 I-125 Somatostatin Competition Binding Assay for Selectivity Versus SSTR1
Membranes from CHO-K1 cells overexpressing SSTR1 are purchased from Perkin Elmer (catalog number ES-520-M400UA). Test compounds are suspended in DMSO and then diluted in assay buffer (25 mM HEPES pH 7.4, 10 mM MgCl2, 1 mM CaCl2, 0.5% BSA) plus 0.4 nM I-125 labeled somatostatin (Perkin Elmer catalog number NEX389). […] Then 10 μg of SSTR1 membranes in 50 μL assay buffer are added per well. The plate is incubated for 60 minutes at room temperature. […] The contents of the assay plate are transferred to filters with a TomTech harvester and washed 5 times with 20 mM HEPES, 100 mM NaCl. […] The scintillator sheets are melted to the filters using a heat block. The filters are then read in a MicroBeta scintillation counter. Binding Ki curves are generated using Activity Base for Screening Data Management and the results are reported as pIC50.

SSTR4 [2] = target: T1, SSTR4; assay: SSTR4 I-125 somatostatin competition binding assay (CHO-K1 membranes); design: host or cells: CHO-K1; details: competition with I-125 labeled somatostatin, membranes from CHO-K1 overexpressing SSTR4; read-out: SSTR4 Binding pIC50 (converted)
Source text: SSTR4I-125 Somatostatin Competition Binding Assay
Membranes from CHO-K1 cells overexpressing SSTR4 are purchased from Perkin Elmer (catalog number ES-524-M400UA). […] The scintillator sheets are melted to filters using a heat block.
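Wherever EC50 is given: CHO-K1 cells overexpressing SSTR4, reduction of forskolin-driven cAMP after 30 min compound exposure at room temperature, cAMP read by HTRF LANCE Ultra kit.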

T1 sequence (P31391 whole entry): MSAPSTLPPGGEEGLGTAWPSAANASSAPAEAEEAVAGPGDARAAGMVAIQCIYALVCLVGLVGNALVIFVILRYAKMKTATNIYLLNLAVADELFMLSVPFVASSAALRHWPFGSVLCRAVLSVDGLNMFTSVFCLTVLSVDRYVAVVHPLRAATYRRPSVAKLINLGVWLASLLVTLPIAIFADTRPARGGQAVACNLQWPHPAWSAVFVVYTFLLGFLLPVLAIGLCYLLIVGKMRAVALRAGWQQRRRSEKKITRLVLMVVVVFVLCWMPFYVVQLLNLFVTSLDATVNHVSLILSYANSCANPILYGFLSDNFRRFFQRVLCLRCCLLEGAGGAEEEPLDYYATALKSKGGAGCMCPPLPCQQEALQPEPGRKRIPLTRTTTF

Cc1nc(N[C@@H]2CCN(C)C[C@H]2C)c(Cc2ccc(F)cc2)nc1C(N)=O (racemic) [Example 45, 5-((trans-1,3-dimethylpiperidin-4-yl)amino)-6-(4-fluorobenzyl)-3-methylpyrazine-2-carboxamide]
EC50 (SSTR4 [1]): 0.038 µM | IC50 (SSTR1): 18.2 µM | IC50 (SSTR4 [2]): 0.129 µM

CNC(=O)c1nc(Cc2ccc(F)cc2)c(N[C@@H]2CCN(C)C[C@H]2C)nc1C (racemic) [Example 46, 5-((trans-1,3-dimethylpiperidin-4-yl)amino)-6-(4-fluorobenzyl)-N,3-dimethylpyrazine-2-carboxamide]
EC50 (SSTR4 [1]): 0.0724 µM | IC50 (SSTR1): 14.5 µM | IC50 (SSTR4 [2]): 0.49 µM

COc1cccc(Cc2nc3cccc(C)c3nc2NCCN2CCC2)c1 (single isomer, unassigned) [Example 4, N-(2-(azetidin-1-yl)ethyl)-3-(3-methoxybenzyl)-8-methylquinoxalin-2-amine]
EC50 (SSTR4 [1]): 0.0631 µM | IC50 (SSTR1): 1.55 µM | IC50 (SSTR4 [2]): 0.038 µM

C[C@H](c1ccc(F)cc1)c1nc(C(N)=O)cnc1NCCN1CCCC1 (single isomer, unassigned) [Example 21]
EC50 (SSTR4 [1]): 0.00513 µM | IC50 (SSTR1): 2.82 µM | IC50 (SSTR4 [2]): 0.0245 µM

CNC(=O)c1cnc(NCCN2CCCC2)c([C@@H](C)c2ccc(F)cc2)n1 (single isomer, unassigned) [Example 23]
EC50 (SSTR4 [1]): 0.0251 µM | IC50 (SSTR1): 13.2 µM | IC50 (SSTR4 [2]): 0.0631 µM

CNC(=O)c1cnc(NCCN2CCCC2)c([C@H](C)c2ccc(F)cc2)n1 (single isomer, unassigned) [Example 24]
EC50 (SSTR4 [1]): 0.0186 µM | IC50 (SSTR1): 5.13 µM | IC50 (SSTR4 [2]): 0.0457 µM

C[C@H](c1ccc(F)cc1)c1nc(C(N)=O)cnc1N[C@@H]1CCN(C)C1 (single isomer, unassigned) [Example 30]
EC50 (SSTR4 [1]): 0.049 µM | IC50 (SSTR1): 12.3 µM | IC50 (SSTR4 [2]): 0.912 µM

C[C@H](c1ccc(F)cc1)c1nccnc1NCCN1CCCC1 (single isomer, unassigned) [Example 121]
EC50 (SSTR4 [1]): 0.00437 µM | IC50 (SSTR1): 1.38 µM | IC50 (SSTR4 [2]): 0.0398 µM

Cc1nnc([C@H](C)c2ccc(F)cc2)c(NCCN2CCC2)n1 (single isomer, unassigned) [Example 133]
EC50 (SSTR4 [1]): 0.0427 µM | IC50 (SSTR1): 30.2 µM | IC50 (SSTR4 [2]): 0.209 µM

Cc1nnc([C@@H](C)c2ccc(F)cc2)c(NCCN2CCC2)n1 (single isomer, unassigned) [Example 134]
EC50 (SSTR4 [1]): 0.00219 µM | IC50 (SSTR1): 15.1 µM | IC50 (SSTR4 [2]): 0.0195 µM

Cc1nnc([C@H](C)c2ccc(F)cc2)c(N[C@@H]2CCN(C)C2)n1 (single isomer, unassigned) [Example 141]
EC50 (SSTR4 [1]): 0.0214 µM | IC50 (SSTR1): 25.7 µM | IC50 (SSTR4 [2]): 0.0933 µM

Cc1nnc([C@H](C)c2ccccc2)c(NCCN2CCC2)n1 (single isomer, unassigned) [Example 144]
EC50 (SSTR4 [1]): 0.038 µM | IC50 (SSTR1): 18.6 µM | IC50 (SSTR4 [2]): 0.603 µM

Cc1nnc([C@@H](C)c2ccccc2)c(NCCN2CCC2)n1 (single isomer, unassigned) [Example 145]
EC50 (SSTR4 [1]): 0.00174 µM | IC50 (SSTR1): 14.5 µM | IC50 (SSTR4 [2]): 0.0251 µM

Cc1nnc([C@H](C)c2ccc(F)cc2)c(N[C@H]2CCN(C)C2)n1 (single isomer, unassigned) [Example 146]
EC50 (SSTR4 [1]): 0.0275 µM | IC50 (SSTR1): 10 µM | IC50 (SSTR4 [2]): 0.0912 µM

Cc1nnc([C@H](C)c2ccccc2)c(N[C@@H]2CCN(C)C2)n1 (single isomer, unassigned) [Example 149]
EC50 (SSTR4 [1]): 0.0398 µM | IC50 (SSTR1): 12.9 µM | IC50 (SSTR4 [2]): 0.174 µM

Cc1nnc([C@@H](C)c2ccccc2)c(N[C@H]2CCN(C)C2)n1 (single isomer, unassigned) [Example 152]
EC50 (SSTR4 [1]): 0.0269 µM | IC50 (SSTR1): 10 µM | IC50 (SSTR4 [2]): 0.204 µM

C[C@H](c1ccc(F)cc1)c1nc(C(=O)N2CCCC2)cnc1NCCN1CCCC1 [Example 8, (R)-(6-(1-(4-fluorophenyl)ethyl)-5-((2-(pyrrolidin-1-yl)ethyl)amino)pyrazin-2-yl)(pyrrolidin-1-yl)methanone]
EC50 (SSTR4 [1]): 0.0316 µM | IC50 (SSTR1): 1.95 µM | IC50 (SSTR4 [2]): 0.141 µM

CO[C@H]1CCN(C(=O)c2cnc(NCCN3CCCC3)c([C@H](C)c3ccc(F)cc3)n2)C1 [Example 10, (6-((R)-1-(4-fluorophenyl)ethyl)-5-((2-(pyrrolidin-1-yl)ethyl)amino)pyrazin-2-yl)((S)-3-methoxypyrrolidin-1-yl)methanone]
EC50 (SSTR4 [1]): 0.0269 µM | IC50 (SSTR1): 3.16 µM | IC50 (SSTR4 [2]): 0.38 µM

CO[C@@H]1CCN(C(=O)c2cnc(NCCN3CCCC3)c([C@H](C)c3ccc(F)cc3)n2)C1 [Example 11, (6-((R)-1-(4-fluorophenyl)ethyl)-5-((2-(pyrrolidin-1-yl)ethyl)amino)pyrazin-2-yl)((R)-3-methoxypyrrolidin-1-yl)methanone]
EC50 (SSTR4 [1]): 0.0288 µM | IC50 (SSTR1): 3.47 µM | IC50 (SSTR4 [2]): 0.214 µM

C[C@H](c1ccc(F)cc1)c1nc(C(=O)N[C@H]2CCOC2)cnc1NCCN1CCCC1 [Example 12, 6-((R)-1-(4-fluorophenyl)ethyl)-5-((2-(pyrrolidin-1-yl)ethyl)amino)-N-((S)-tetrahydrofuran-3-yl)pyrazine-2-carboxamide]
EC50 (SSTR4 [1]): 0.0151 µM | IC50 (SSTR1): 5.62 µM | IC50 (SSTR4 [2]): 0.162 µM

C[C@H](c1ccc(F)cc1)c1nc(C(=O)N[C@@H]2CCOC2)cnc1NCCN1CCCC1 [Example 13, 6-((R)-1-(4-fluorophenyl)ethyl)-5-((2-(pyrrolidin-1-yl)ethyl)amino)-N-((R)-tetrahydrofuran-3-yl)pyrazine-2-carboxamide]
EC50 (SSTR4 [1]): 0.0117 µM | IC50 (SSTR1): 4.07 µM | IC50 (SSTR4 [2]): 0.162 µM

C[C@H](c1ccc(F)cc1)c1nc(C(=O)N(C)C2CC2)cnc1NCCN1CCCC1 [Example 17, (R)-N-cyclopropyl-6-(1-(4-fluorophenyl)ethyl)-N-methyl-5-((2-(pyrrolidin-1-yl)ethyl)amino)pyrazine-2-carboxamide]
EC50 (SSTR4 [1]): 0.0117 µM | IC50 (SSTR1): 7.94 µM | IC50 (SSTR4 [2]): 0.162 µM

C[C@H](c1ccc(F)cc1)c1nc(C(=O)NC2CCOCC2)cnc1NCCN1CCCC1 [Example 18, (R)-6-(1-(4-fluorophenyl)ethyl)-5-((2-(pyrrolidin-1-yl)ethyl)amino)-N-(tetrahydro-2H-pyran-4-yl)pyrazine-2-carboxamide]
EC50 (SSTR4 [1]): 0.012 µM | IC50 (SSTR1): 8.91 µM | IC50 (SSTR4 [2]): 0.166 µM

CC(c1ccc(F)cc1)c1nc(C(N)=O)cnc1NCCN1CCCC1 (stereo not drawn) [Example 19, 6-(1-(4-fluorophenyl)ethyl)-5-((2-(pyrrolidin-1-yl)ethyl)amino)pyrazine-2-carboxamide]
EC50 (SSTR4 [1]): 0.00537 µM | IC50 (SSTR1): 5.75 µM | IC50 (SSTR4 [2]): 0.0501 µM

CC(c1ccc(F)cc1)c1ncc(C(F)(F)F)nc1NCCN1CCCC1 (stereo not drawn) [Example 94, 3-(1-(4-fluorophenyl)ethyl)-N-(2-(pyrrolidin-1-yl)ethyl)-6-(trifluoromethyl)pyrazin-2-amine]
EC50 (SSTR4 [1]): 0.151 µM

Cc1cccc(Cc2nc(C#N)c(C)nc2N[C@@H]2CCN(C)C2)c1 [Example 97, (R)-3-methyl-6-(3-methylbenzyl)-5-((1-methylpyrrolidin-3-yl)amino)pyrazine-2-carbonitrile]
EC50 (SSTR4 [1]): 0.0363 µM

COc1cccc(Cc2nc(C#N)c(C)nc2N[C@@H]2CCN(C)C2)c1 [Example 98, (R)-6-(3-methoxybenzyl)-3-methyl-5-((1-methylpyrrolidin-3-yl)amino)pyrazine-2-carbonitrile]
EC50 (SSTR4 [1]): 0.0776 µM

CN(C)C(=O)c1cnc(NCCN2CCCC2)c(Cc2ccc(F)cc2)c1 [Example 99, 5-(4-fluorobenzyl)-N,N-dimethyl-6-((2-(pyrrolidin-1-yl)ethyl)amino)nicotinamide]
EC50 (SSTR4 [1]): 0.107 µM

NC(=O)c1cnc(NCCN2CCCC2)c(Cc2ccc(F)cc2)c1 [Example 100, 5-(4-fluorobenzyl)-6-((2-(pyrrolidin-1-yl)ethyl)amino)nicotinamide]
EC50 (SSTR4 [1]): 0.0955 µM

CNC(=O)c1cnc(NCCN2CCCC2)c(Cc2ccc(F)cc2)c1 [Example 101]
EC50 (SSTR4 [1]): 0.166 µM

CN1CCCC1CNc1nccnc1Cc1ccc(F)cc1 (stereo not drawn) [Example 109, 3-(4-fluorobenzyl)-N-((1-methylpyrrolidin-2-yl)methyl)pyrazin-2-amine]
EC50 (SSTR4 [1]): 0.501 µM

CN1CCC1CNc1nccnc1Cc1ccc(F)cc1 (stereo not drawn) [Example 110, 3-(4-fluorobenzyl)-N-((1-methylazetidin-2-yl)methyl)pyrazin-2-amine]
EC50 (SSTR4 [1]): 2.04 µM

CN1CCCCC1CNc1nccnc1Cc1ccc(F)cc1 (stereo not drawn) [Example 112, 3-(4-fluorobenzyl)-N-((1-methylpiperidin-2-yl)methyl)pyrazin-2-amine]
EC50 (SSTR4 [1]): 0.55 µM

CC(c1ccc(F)cc1)c1nccnc1NCCN1CCC(F)C1 (stereo not drawn) [Example 117, 3-(1-(4-fluorophenyl)ethyl)-N-(2-(3-fluoropyrrolidin-1-yl)ethyl)pyrazin-2-amine]
EC50 (SSTR4 [1]): 0.224 µM

Cc1cnc(-c2cnc(NCCN3CCCC3)c(C(C)c3ccc(F)cc3)n2)s1 (stereo not drawn) [Example 127, 3-(1-(4-fluorophenyl)ethyl)-5-(5-methylthiazol-2-yl)-N-(2-(pyrrolidin-1-yl)ethyl)pyrazin-2-amine]
EC50 (SSTR4 [1]): 0.224 µM

Cc1cnc(-c2cnc(NCCN3CCCC3)c(C(C)c3ccc(F)cc3)n2)n1C (stereo not drawn) [Example 128, 5-(1,5-dimethyl-1H-imidazol-2-yl)-3-(1-(4-fluorophenyl)ethyl)-N-(2-(pyrrolidin-1-yl)ethyl)pyrazin-2-amine]
EC50 (SSTR4 [1]): 0.0813 µM

CCc1nnc(Cc2cccc(C)c2)c(NCCN2CCC2)n1 [Example 130, N-(2-(azetidin-1-yl)ethyl)-3-ethyl-6-(3-methylbenzyl)-1,2,4-triazin-5-amine]
EC50 (SSTR4 [1]): 0.00794 µM

Cc1nnc(Cc2ccc(F)cc2)c(NCCN2CCC2)n1 [Example 135, N-(2-(azetidin-1-yl)ethyl)-6-(4-fluorobenzyl)-3-methyl-1,2,4-triazin-5-amine]
EC50 (SSTR4 [1]): 0.129 µM

Cc1nnc(Cc2ccc(F)cc2)c(NC2CCN(C)CC2)n1 [Example 137, 6-(4-fluorobenzyl)-3-methyl-N-(1-methylpiperidin-4-yl)-1,2,4-triazin-5-amine]
EC50 (SSTR4 [1]): 0.141 µM
